# What was measured:
# Assay in all cases: relative viability (nuclei count vs DMSO), 5 days (fraction); higher = more cells survive
# [1] = compound: CC1=CC(=CC=C1)NC2=NC(=CS2)C3=CC=NC=C3 + O=C(c1cc(Cc2n[nH]c(=O)c3ccccc23)ccc1F)N1CCN(C(=O)C2CC2)CC1 [Olaparib] (partner 8 µM)
# Outline: (§1)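 Lung cancer cell lines in 1536-well plates were dosed by pin tool the day after seeding, either with one drug alone or with a fixed anchor-drug dose plus five library-drug doses (not always all listed) in √10 steps. After 5 days, cells were fixed and their nuclei stained in one step (final 0.05% Triton X-100, 1% formaldehyde, 1 ug/ml Hoechst), then counted on 4× images. Relative viability is the nuclei count in treated wells divided by that in vehicle wells. Values are medians of duplicate plates.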
# Masitinib + OSI-027 = compound: Cc1ccc(NC(=O)c2ccc(CN3CCN(C)CC3)cc2)cc1Nc1nc(-c2cccnc2)cs1 [Masitinib] + COc1cccc2cc(-c3nc([C@H]4CC[C@H](C(=O)O)CC4)n4ncnc(N)c34)[nH]c12 [OSI-027] (partner 0.5 µM)
# Outline: as §1
# Masitinib + Trametinib = compound: Cc1ccc(NC(=O)c2ccc(CN3CCN(C)CC3)cc2)cc1Nc1nc(-c2cccnc2)cs1 [Masitinib] + CC(=O)Nc1cccc(-n2c(=O)n(C3CC3)c(=O)c3c(Nc4ccc(I)cc4F)n(C)c(=O)c(C)c32)c1 [Trametinib] (partner 0.02 µM)
# Outline: as §1
# Masitinib + Crizotinib = compound: Cc1ccc(NC(=O)c2ccc(CN3CCN(C)CC3)cc2)cc1Nc1nc(-c2cccnc2)cs1 [Masitinib] + C[C@@H](Oc1cc(-c2cnn(C3CCNCC3)c2)cnc1N)c1c(Cl)ccc(F)c1Cl [Crizotinib] (partner 1 µM)
# Outline: as §1
Cell Line,relative viability ([1]; first compound 0.08 µM),relative viability ([1]; first compound 0.253 µM),relative viability ([1]; first compound 0.8 µM),relative viability ([1]; first compound 2.53 µM),relative viability ([1]; first compound 8 µM),relative viability (Masitinib + OSI-027; first compound 0.01 µM),relative viability (Masitinib + OSI-027; first compound 0.03162 µM),relative viability (Masitinib + OSI-027; first compound 0.1 µM),relative viability (Masitinib + OSI-027; first compound 0.3162 µM),relative viability (Masitinib + OSI-027; first compound 1 µM),relative viability (Masitinib + Trametinib; first compound 0.01 µM),relative viability (Masitinib + Trametinib; first compound 0.03162 µM),relative viability (Masitinib + Trametinib; first compound 0.1 µM),relative viability (Masitinib + Trametinib; first compound 0.3162 µM),relative viability (Masitinib + Trametinib; first compound 1 µM),relative viability (Masitinib + Crizotinib; first compound 0.01 µM),relative viability (Masitinib + Crizotinib; first compound 0.03162 µM),relative viability (Masitinib + Crizotinib; first compound 0.1 µM),relative viability (Masitinib + Crizotinib; first compound 0.3162 µM),relative viability (Masitinib + Crizotinib; first compound 1 µM)
NCI-H2342,0.438,0.468,0.398,0.476,0.395,0.637,0.58,0.696,0.592,0.593,0.89,0.7,0.844,0.797,0.875,–,–,–,–,–
NCI-H1793,0.889,0.647,0.799,0.68,0.81,0.318,0.205,0.285,0.28,0.254,0.54,0.388,0.407,0.555,0.346,–,–,–,–,–
LU99A,0.233,0.262,0.275,0.27,0.237,0.257,0.331,0.311,0.316,0.29,0.619,0.597,0.624,0.559,0.503,0.592,0.629,0.62,0.639,0.527
HCC-366,0.352,0.331,0.261,0.286,0.21,–,1,–,0.792,0.78,–,0.275,0.407,0.333,0.34,0.467,0.517,0.721,0.334,0.444
201T,0.853,0.845,0.788,0.826,0.757,0.792,0.534,0.745,–,0.729,0.599,0.712,0.628,0.745,0.719,0.836,1.03,0.99,1.02,0.935
HCC-827,0.639,0.635,0.661,0.717,0.654,0.728,0.704,0.832,0.84,0.692,0.508,0.532,0.539,0.603,0.547,0.725,0.961,0.95,0.893,0.895
NCI-H650,0.338,0.348,0.392,0.368,0.367,0.538,0.427,0.536,0.344,0.524,1.05,1.1,1.03,1.28,0.99,0.741,0.66,0.932,0.643,0.805
NCI-H2085,0.844,0.784,0.757,0.769,0.587,0.627,0.666,0.918,0.47,0.604,0.583,0.534,0.556,0.514,0.524,0.784,0.775,0.868,0.985,0.853
NCI-H596,0.674,0.546,0.673,0.6,0.613,0.87,0.678,0.73,0.717,0.697,0.723,0.691,0.789,0.678,0.732,0.964,1.1,1.06,0.931,0.981
SK-LU-1,0.49,0.435,–,0.459,0.433,0.361,0.334,0.346,0.329,0.368,0.513,0.406,0.534,0.555,0.464,0.832,0.884,0.983,1.01,0.756
A-427,0.456,0.576,0.565,0.683,0.615,–,0.509,–,0.531,0.456,0.623,0.74,0.842,0.75,0.676,–,0.889,–,0.845,0.783
NCI-H460,0.368,0.344,0.355,0.278,0.263,0.796,0.705,0.674,0.558,0.522,0.13,0.121,0.139,0.13,0.13,0.748,0.763,1.03,0.647,0.911
NCI-H1734,0.552,0.584,0.57,0.63,0.539,0.668,0.625,0.599,0.568,0.544,0.682,0.661,0.759,0.696,0.663,0.668,0.777,0.862,0.503,0.615
NCI-H1915,0.271,0.263,0.25,0.243,0.23,–,0.606,–,0.578,0.546,–,0.635,–,0.302,0.302,–,0.995,1.01,1.03,1.08
Calu-6,0.422,0.471,0.43,0.479,0.407,–,–,–,–,–,–,–,–,–,–,0.781,0.808,0.886,0.843,0.73
SW 1573,0.486,0.544,0.526,0.465,0.441,0.646,0.627,0.798,0.66,0.559,0.666,0.603,0.551,0.542,0.581,0.761,0.786,0.754,0.718,0.778
RERF-LC-KJ,0.509,0.258,0.184,0.181,0.163,0.629,0.517,0.583,0.418,0.412,0.769,0.836,0.834,0.809,0.763,0.853,0.901,0.79,0.755,0.759
EMC-BAC-2,0.424,–,0.384,0.366,0.326,0.379,0.381,0.379,0.379,0.354,0.576,–,0.705,0.806,0.821,0.655,0.648,0.845,0.705,0.82
LK-2,0.665,0.762,0.903,0.824,1.09,0.194,0.214,0.198,0.201,0.243,0.743,0.783,0.828,0.728,0.748,0.248,0.246,0.21,0.217,0.188
NCI-H2228,0.396,0.324,0.525,0.559,0.415,0.633,0.661,0.638,0.807,0.528,0.385,0.381,0.405,0.482,0.529,0.417,0.481,0.717,0.415,0.669

Cell Line,relative viability ([1]; first compound 0.08 µM),relative viability ([1]; first compound 0.253 µM),relative viability ([1]; first compound 0.8 µM),relative viability ([1]; first compound 2.53 µM),relative viability ([1]; first compound 8 µM),relative viability (Masitinib + OSI-027; first compound 0.01 µM),relative viability (Masitinib + OSI-027; first compound 0.03162 µM),relative viability (Masitinib + OSI-027; first compound 0.1 µM),relative viability (Masitinib + OSI-027; first compound 0.3162 µM),relative viability (Masitinib + OSI-027; first compound 1 µM),relative viability (Masitinib + Trametinib; first compound 0.01 µM),relative viability (Masitinib + Trametinib; first compound 0.03162 µM),relative viability (Masitinib + Trametinib; first compound 0.1 µM),relative viability (Masitinib + Trametinib; first compound 0.3162 µM),relative viability (Masitinib + Trametinib; first compound 1 µM),relative viability (Masitinib + Crizotinib; first compound 0.01 µM),relative viability (Masitinib + Crizotinib; first compound 0.03162 µM),relative viability (Masitinib + Crizotinib; first compound 0.1 µM),relative viability (Masitinib + Crizotinib; first compound 0.3162 µM),relative viability (Masitinib + Crizotinib; first compound 1 µM)
NCI-H322M,0.687,0.76,0.725,0.613,0.575,0.64,0.531,0.605,0.551,0.514,0.576,0.465,0.519,0.637,0.566,0.745,0.956,1.02,0.9,0.873
NCI-H1993,0.945,1.01,0.923,1.11,0.898,0.533,0.533,0.489,0.541,0.514,0.483,0.437,0.578,0.508,0.538,0.942,–,0.883,0.755,0.718
NCI-H2170,0.589,0.631,0.473,0.531,0.425,0.701,0.75,0.791,0.606,0.726,1.08,0.76,1.01,0.984,0.98,1.38,1.18,1.37,1.3,1.11
LXF-289,1.02,0.994,1.04,1.05,0.927,0.747,0.963,0.794,0.861,0.767,0.638,0.707,0.674,0.747,0.699,0.701,0.783,0.818,0.835,0.802
NCI-H2405,0.751,0.75,0.677,–,0.723,0.62,0.63,0.633,0.609,0.659,0.651,0.605,0.705,0.576,0.594,0.77,0.784,0.848,0.802,0.746
NCI-H2023,0.42,0.543,0.38,0.388,0.286,0.387,0.412,0.592,0.271,0.27,0.509,0.448,0.531,0.518,0.549,0.638,0.737,0.645,0.493,0.589
HCC-15,0.713,0.696,0.717,0.677,0.694,0.635,0.68,0.641,0.588,0.629,0.364,0.373,0.389,0.234,0.354,0.745,0.826,0.798,1.04,0.976
NCI-H1299,1.01,1,0.889,0.904,0.854,–,–,–,–,–,–,–,–,–,–,0.947,0.989,1.02,1.01,0.96
ABC-1,0.48,–,0.735,0.525,0.574,0.432,0.52,0.516,0.334,0.38,–,–,–,–,–,0.965,1.17,1.15,1.12,1.18
NCI-H1563,–,–,–,–,–,0.741,0.717,0.781,0.738,0.705,–,–,–,–,–,0.833,0.865,0.907,0.814,0.868
NCI-H1703,0.313,0.33,0.359,0.585,0.447,–,–,–,–,–,–,–,–,–,–,0.483,0.758,0.293,0.492,0.139
NCI-H1648,0.545,0.412,0.656,0.477,0.392,0.272,–,0.236,0.268,0.254,0.523,0.436,0.414,–,0.442,–,–,–,–,–
A549,0.264,0.37,0.353,0.261,0.449,–,–,–,–,–,–,–,–,–,–,0.666,0.805,0.823,0.686,0.722
NCI-H522,0.708,0.579,0.746,0.544,0.704,0.784,–,0.781,0.781,0.698,0.742,0.784,0.787,0.73,0.721,–,–,–,–,–
NCI-H1623,–,–,–,–,–,0.373,0.507,0.447,0.318,0.367,–,–,–,–,–,–,–,–,–,–
SW 900,0.751,0.667,0.693,0.433,0.543,0.654,0.443,0.627,0.527,0.482,0.719,0.736,0.787,0.821,0.843,–,–,–,–,–
NCI-H1395,0.439,–,0.478,0.46,0.43,0.647,0.609,0.71,0.563,0.623,1.01,1.03,1.04,1.11,0.973,–,–,–,–,–
IA-LM,0.8,0.779,0.605,0.475,0.714,–,–,–,–,–,–,–,–,–,–,–,–,0.871,0.618,0.84
EBC-1,0.575,0.417,0.328,0.41,0.451,–,–,–,–,–,–,–,–,–,–,0.191,0.205,0.195,0.162,0.212
